This passage reports Ki results from patent US8637671B2, “Indole derivatives as CRTH2 receptor antagonists” (Merck Canada Inc., priority 2008, dated 2014).

Structures are written as SMILES. pKi: −log10 of the molar value.

This assay addresses T1, hCRTH2 (Homo sapiens, UniProt Q9Y5Y4).
T1 sequence (Q9Y5Y4 1-395): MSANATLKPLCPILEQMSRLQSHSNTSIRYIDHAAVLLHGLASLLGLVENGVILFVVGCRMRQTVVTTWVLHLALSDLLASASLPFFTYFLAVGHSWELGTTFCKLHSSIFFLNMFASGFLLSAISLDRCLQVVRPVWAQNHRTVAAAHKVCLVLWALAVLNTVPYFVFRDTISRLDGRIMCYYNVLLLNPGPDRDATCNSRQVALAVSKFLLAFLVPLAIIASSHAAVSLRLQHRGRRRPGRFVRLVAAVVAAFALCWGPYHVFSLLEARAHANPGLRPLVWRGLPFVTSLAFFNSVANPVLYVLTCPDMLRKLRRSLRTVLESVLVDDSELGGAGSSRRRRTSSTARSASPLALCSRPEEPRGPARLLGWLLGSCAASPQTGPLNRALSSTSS
Put plainly: Radioligand binding assay ([3H]PGD2 competition).
Experimental: Radioligand binding assay. […] Competing ligands were diluted in dimethylsulfoxide (Me2SO) that was kept constant at 1% (v/v) of the final incubation volume. The reaction was initiated by the addition of 8-20 μg of membrane protein prepared from a HEK-hCRTH2 cell line. Total and non-specific binding were determined in the absence and the presence of 10 μM PGD2, respectively. Under these conditions, specific binding (total minus non-specific) of the radioligand to the receptor reached equilibrium within 50 min and was stable up to 180 min. The reaction was routinely conducted for 60 min at room temperature and terminated by rapid filtration through prewetted Unifilters GF/C (Packard), using a Tomtec MachIII semi-automated harvester (for HEK-hCRTH2). The filters were then washed with 4 ml of the same buffer and residual radioligand bound to the filter was determined by liquid scintillation counting following equilibration in 25 μl Ultima Gold F™ (Unifilter) (Packard).
In general, pKi refers to the negative decadic logarithm of the Ki, by convention in mol/L. As to `O=C(O)Cc1c2n(c3ccccc13)C[C@H](N(Cc1ccc(F)cc1)C(=O)Cc1ccc(F)cc1)CC2` [Example 3, ((7R)-7-{(4-fluorobenzyl)[(4-fluorophenyl)acetyl]amino}-6,7,8,9-tetrahydropyrido[1,2-a]indol-10-yl)acetic acid], the pKi was ≥ 8.30.
As to `CN(C(=O)C1(c2ccc(Cl)cc2)CCCC1)[C@@H]1CCc2c(CC(=O)O)c3ccccc3n2C1` [Example 20, {(7R)-7-[{[1-(4-chlorophenyl)cyclopentyl]carbonyl}(methyl)amino]-6,7,8,9-tetrahydropyrido[1,2-a]indol-10-yl}acetic acid], the pKi was ≥ 8.30.
`CN(C(=O)C(C)(C)Cc1ccccc1)[C@@H]1CCc2c(CC(=O)O)c3ccccc3n2C1` [Example 26, {(7R)-7-[(2,2-dimethyl-3-phenylpropanoyl)(methyl)amino]-6,7,8,9-tetrahydropyrido[1,2-a]indol-10-yl}acetic acid]: the pKi was 8.00 to 8.30.
For the molecule `CN(C(=O)CCc1ccccc1)[C@@H]1CCc2c(CC(=O)O)c3ccccc3n2C1` [Example 29, {(7R)-7-[methyl(3-phenylpropanoyl)amino]-6,7,8,9-tetrahydropyrido[1,2-a]indol-10-yl}acetic acid], the negative-log Ki (pKi) was 8.00 to 8.30.
For `CC(C(=O)N(C)[C@@H]1CCc2c(CC(=O)O)c3ccccc3n2C1)c1ccccc1` (stereo partly drawn) [Example 30, ((7R)-7-{methyl [2-phenylpropanoyl]amino}-6,7,8,9-tetrahydropyrido[1,2-a]indol-10-yl)acetic acid] the value was ≥ 8.30; for `CN(C(=O)Cc1ccc(F)cc1Br)[C@@H]1CCc2c(CC(=O)O)c3ccccc3n2C1` [Example 34, {(7R)-7-[[(2-bromo-4-fluorophenyl)acetyl](methyl)amino]-6,7,8,9-tetrahydropyrido[1,2-a]indol-10-yl}acetic acid], 7.00 to 7.30.
For the molecule `CN(C(=O)C1(c2ccc(F)cc2)CC1(C)C)[C@@H]1CCc2c(CC(=O)O)c3ccccc3n2C1` (stereo partly drawn) [Example 35, {(7R)-7-[{[1-(4-fluorophenyl)-2,2-dimethylcyclopropyl]carbonyl}(methyl)amino]-6,7,8,9-tetrahydropyrido[1,2-a]indol-10-yl}acetic acid], the pKi was ≥ 8.30.
`COC(C(=O)N(C)[C@@H]1CCc2c(CC(=O)O)c3ccccc3n2C1)c1ccccc1` (stereo partly drawn) [Example 36, {(7R)-7-[[-2-methoxy-2-phenylacetyl](methyl)amino]-6,7,8,9-tetrahydropyrido[1,2-a]indol-10-yl}acetic acid] showed a pKi of 7.30 to 8.00.
